Measured values from article PMC8418874 (European journal of medicinal chemistry, 2018).

Key:
SKOV-3 cells [1] = assay: Cellular uptake by flow cytometry; type: cell-based, human; conditions: SKOV-3, Dox 5 μM, Dox-SS-Pyr 50 μM, Dox-SS-[C(WR)4K] 50 μM, 3 h, 37 °C, serum-free medium, triplicate
HT-1080 cells = assay: Cellular uptake by flow cytometry; type: cell-based, human; conditions: HT-1080, Dox 5 μM, Dox-SS-Pyr 50 μM, Dox-SS-[C(WR)4K] 50 μM, 3 h, 37 °C, serum-free medium, triplicate
[2] = system: human ovarian cancer cells (SKOV-3); assay: Antiproliferative activity / viability assay; type: cell-based; conditions: SK-OV-3, 24 h, read-out: inhibition of cell proliferation
SKOV-3 cells [3] = assay: Fluorescence microscopy, cellular localization; type: cell-based, human; conditions: SKOV-3, 5 μM, DAPI nuclear stain

COc1cccc2c1C(=O)c1c(O)c3c(c(O)c1C2=O)C[C@@](O)(C(=O)CO)C[C@@H]3O[C@H]1C[C@H](N)[C@H](O)[C@H](C)O1 [Dox, Doxorubicin]
cellular uptake (mean fluorescence) (SKOV-3 cells [1]): higher cellular uptake in SKOV-3 and HT-1080 cells | cellular uptake (mean fluorescence) (HT-1080 cells): higher cellular uptake in SKOV-3 and HT-1080 cells | inhibition at 5 µM [2]: 76% | cellular localization (SKOV-3 cells [3]; after 1 h): localized in the nucleus | cellular localization (SKOV-3 cells [3]; after 24 h): localized in the nucleus

COc1cccc2c1C(=O)c1c(O)c3c(c(O)c1C2=O)C[C@@](O)(C(=O)CO)C[C@@H]3O[C@H]1C[C@H](NC(=N)CCCS)[C@H](O)[C@H](C)O1 [Dox-SH, thiolated doxorubicin]
cellular localization (SKOV-3 cells [3]; after 1 h): distributed mostly outside the nucleus

COc1cccc2c1C(=O)c1c(O)c3c(c(O)c1C2=O)C[C@@](O)(C(=O)CO)C[C@@H]3O[C@H]1C[C@H](NC(=N)CCCSSc2ccccn2)[C@H](O)[C@H](C)O1 [Dox-SS-Pyr, pyridyl doxorubicin]
cellular localization (SKOV-3 cells [3]; after 1 h): distributed mostly outside the nucleus
